# Read-outs that look alike come from different tables or passages of the source.
# Columns and labels:
# human USP1-UAF1 = conditions: cited from earlier work
# U2OS cells [1] = assay: SCE assay; type: cell-based, human; conditions: ML323 30 μM, cisplatin 15 μM, control 0.12
# USP14 = USP14 (Homo sapiens, UniProt P54578); assay: in vitro DUB selectivity
# XPV cells = assay: UV sensitivity colony-forming assay; type: cell-based, human; conditions: 20 μM ML323
# H596 cells [2] = assay: cellular activity assay of USP1-UAF1; type: cell-based, human; conditions: for change in levels of Ub-PCNA and Ub-FANCD2: H596, 6 h, cisplatin 100 μM, ML323 30 μM
# USP1 in HEK293T cells = USP1 in HEK293T cells (Homo sapiens, UniProt O94782); assay: cellular activity-based DUB profiling with HA-Ub-VME; type: cell-based; conditions: 100 μM cisplatin, ML323 0.5 to 50 μM
# Chain of USP1 in HEK293T cells (O94782 whole entry): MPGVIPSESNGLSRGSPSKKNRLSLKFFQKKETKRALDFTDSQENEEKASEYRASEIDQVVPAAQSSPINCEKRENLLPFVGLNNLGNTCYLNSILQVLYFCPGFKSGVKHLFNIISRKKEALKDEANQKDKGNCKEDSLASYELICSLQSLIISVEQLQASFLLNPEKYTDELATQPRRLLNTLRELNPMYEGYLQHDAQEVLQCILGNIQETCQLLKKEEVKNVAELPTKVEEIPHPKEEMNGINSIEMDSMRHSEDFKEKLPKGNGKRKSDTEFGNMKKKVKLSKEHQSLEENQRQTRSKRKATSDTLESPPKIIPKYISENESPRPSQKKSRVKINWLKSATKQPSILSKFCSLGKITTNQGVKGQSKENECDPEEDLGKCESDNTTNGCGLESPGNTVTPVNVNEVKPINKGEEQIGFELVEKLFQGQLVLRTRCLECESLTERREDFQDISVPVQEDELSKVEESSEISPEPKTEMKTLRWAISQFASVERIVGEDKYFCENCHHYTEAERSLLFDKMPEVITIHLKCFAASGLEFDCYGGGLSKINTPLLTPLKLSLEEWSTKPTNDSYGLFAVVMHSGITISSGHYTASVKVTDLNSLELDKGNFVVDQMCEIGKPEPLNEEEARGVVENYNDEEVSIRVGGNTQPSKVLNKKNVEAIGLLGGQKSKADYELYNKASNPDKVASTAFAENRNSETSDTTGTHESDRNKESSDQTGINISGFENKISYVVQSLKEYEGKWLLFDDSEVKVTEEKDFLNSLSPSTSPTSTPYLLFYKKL
# Chain of USP1 in HEK293T cells (Q8TAF3 whole entry partner): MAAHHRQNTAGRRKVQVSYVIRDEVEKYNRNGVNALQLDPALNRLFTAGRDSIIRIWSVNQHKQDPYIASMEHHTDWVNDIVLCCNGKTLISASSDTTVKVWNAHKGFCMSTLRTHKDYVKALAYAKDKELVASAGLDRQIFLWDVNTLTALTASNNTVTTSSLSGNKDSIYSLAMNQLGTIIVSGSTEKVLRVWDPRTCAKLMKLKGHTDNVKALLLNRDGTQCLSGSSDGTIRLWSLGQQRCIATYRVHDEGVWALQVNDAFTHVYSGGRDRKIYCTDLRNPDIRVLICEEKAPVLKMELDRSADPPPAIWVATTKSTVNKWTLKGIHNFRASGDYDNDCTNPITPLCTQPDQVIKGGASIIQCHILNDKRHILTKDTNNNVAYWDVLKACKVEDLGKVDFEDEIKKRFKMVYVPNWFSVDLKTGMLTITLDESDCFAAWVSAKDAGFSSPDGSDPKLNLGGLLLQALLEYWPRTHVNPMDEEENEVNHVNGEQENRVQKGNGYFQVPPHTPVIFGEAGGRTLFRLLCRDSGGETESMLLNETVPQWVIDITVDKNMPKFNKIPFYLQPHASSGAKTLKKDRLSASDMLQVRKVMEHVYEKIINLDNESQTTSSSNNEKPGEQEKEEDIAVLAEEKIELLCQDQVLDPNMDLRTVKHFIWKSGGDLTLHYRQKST
# [3] = tested on: USP8, USP7, CYLD, USP5, USP14, UCH-L3 and UCH-L1 in HEK293T cells; assay: as above; type: cell-based, human; conditions: 100 μM cisplatin, ML323 0.5 to 50 μM
# H596 cells [4] = assay: colony-forming assay; type: cell-based, human
# [5] = tested on: DUBs in the UCH, OTU and MJD families; assay: in vitro DUB profiling
# USP11 = USP11 (Homo sapiens, UniProt P51784); assay: in vitro DUB selectivity; type: biochemical
# Chain of USP11 (P51784 whole entry): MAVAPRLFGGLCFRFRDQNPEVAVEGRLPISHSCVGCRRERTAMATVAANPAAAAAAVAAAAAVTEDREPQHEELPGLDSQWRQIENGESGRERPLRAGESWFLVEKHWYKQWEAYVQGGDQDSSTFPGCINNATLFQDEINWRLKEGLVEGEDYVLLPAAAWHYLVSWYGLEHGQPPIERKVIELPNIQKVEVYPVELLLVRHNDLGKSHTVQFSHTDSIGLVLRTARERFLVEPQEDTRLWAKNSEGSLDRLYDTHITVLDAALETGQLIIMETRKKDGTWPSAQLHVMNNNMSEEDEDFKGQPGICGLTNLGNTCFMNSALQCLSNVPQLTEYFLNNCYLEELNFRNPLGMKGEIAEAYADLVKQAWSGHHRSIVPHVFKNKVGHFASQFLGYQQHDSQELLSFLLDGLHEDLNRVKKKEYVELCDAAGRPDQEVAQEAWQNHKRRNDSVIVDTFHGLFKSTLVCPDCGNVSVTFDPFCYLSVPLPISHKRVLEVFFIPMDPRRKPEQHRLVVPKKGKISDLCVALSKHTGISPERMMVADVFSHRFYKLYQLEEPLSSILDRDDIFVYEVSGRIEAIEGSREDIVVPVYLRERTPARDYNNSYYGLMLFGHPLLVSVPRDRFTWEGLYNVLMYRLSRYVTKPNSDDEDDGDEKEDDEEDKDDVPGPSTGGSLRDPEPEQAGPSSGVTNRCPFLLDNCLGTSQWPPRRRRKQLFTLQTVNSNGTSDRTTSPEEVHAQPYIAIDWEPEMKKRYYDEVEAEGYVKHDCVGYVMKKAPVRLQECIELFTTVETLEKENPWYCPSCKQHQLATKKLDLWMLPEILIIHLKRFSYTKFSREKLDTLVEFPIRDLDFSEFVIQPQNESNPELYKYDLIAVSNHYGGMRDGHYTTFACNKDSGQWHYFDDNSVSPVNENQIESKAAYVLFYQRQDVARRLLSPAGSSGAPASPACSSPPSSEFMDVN
# DR-U2OS cells = assay: HR assay; type: cell-based, human; conditions: 30 μM ML323, 2.56% in the absence of ML323
# USP21 = USP21 (Homo sapiens, UniProt Q9UK80); assay: in vitro DUB selectivity; type: biochemical
# Chain of USP21 (Q9UK80 209-563): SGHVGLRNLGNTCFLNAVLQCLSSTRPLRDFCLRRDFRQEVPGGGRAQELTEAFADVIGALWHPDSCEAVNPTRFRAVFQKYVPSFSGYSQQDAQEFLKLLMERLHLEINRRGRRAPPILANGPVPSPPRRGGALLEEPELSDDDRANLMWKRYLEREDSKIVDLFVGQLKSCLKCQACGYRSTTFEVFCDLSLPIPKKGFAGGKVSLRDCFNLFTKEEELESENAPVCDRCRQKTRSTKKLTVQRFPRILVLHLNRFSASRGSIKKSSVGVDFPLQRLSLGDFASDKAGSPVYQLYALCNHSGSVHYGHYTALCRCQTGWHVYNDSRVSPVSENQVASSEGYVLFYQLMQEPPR
# H596 cells [6] = assay: cell cycle analysis; type: cell-based, human
# PD20 cells = assay: UV sensitivity colony-forming assay; type: cell-based, human; conditions: 20 μM ML323
# PD20 + D2 cells [7] = assay: UV sensitivity colony-forming assay; type: cell-based, human; conditions: with ML323
# USP2 = USP2 (Homo sapiens, UniProt O75604); assay: in vitro DUB selectivity; type: biochemical
# Chain of USP2 (O75604 259-605): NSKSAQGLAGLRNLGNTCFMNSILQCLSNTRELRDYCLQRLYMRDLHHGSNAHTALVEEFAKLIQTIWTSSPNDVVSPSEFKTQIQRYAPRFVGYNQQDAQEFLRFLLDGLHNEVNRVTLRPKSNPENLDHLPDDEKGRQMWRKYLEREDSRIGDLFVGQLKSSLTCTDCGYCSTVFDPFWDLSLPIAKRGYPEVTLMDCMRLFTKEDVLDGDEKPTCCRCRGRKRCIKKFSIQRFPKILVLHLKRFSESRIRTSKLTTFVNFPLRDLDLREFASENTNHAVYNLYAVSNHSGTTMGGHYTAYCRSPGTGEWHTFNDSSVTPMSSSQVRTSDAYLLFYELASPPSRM
# [8] = tested on: USP1 shRNA knockout H596 cell strain; assay: colony-forming assay in USP1 shRNA cells; type: cell-based, human
# USP8 = USP8 (Homo sapiens, UniProt P40818); assay: in vitro DUB selectivity; type: biochemical
# USP46-UAF1 = USP46-UAF1 (Homo sapiens, UniProt P62068); assay: in vitro DUB selectivity; type: biochemical
# Chain of USP46-UAF1 (P62068 whole entry): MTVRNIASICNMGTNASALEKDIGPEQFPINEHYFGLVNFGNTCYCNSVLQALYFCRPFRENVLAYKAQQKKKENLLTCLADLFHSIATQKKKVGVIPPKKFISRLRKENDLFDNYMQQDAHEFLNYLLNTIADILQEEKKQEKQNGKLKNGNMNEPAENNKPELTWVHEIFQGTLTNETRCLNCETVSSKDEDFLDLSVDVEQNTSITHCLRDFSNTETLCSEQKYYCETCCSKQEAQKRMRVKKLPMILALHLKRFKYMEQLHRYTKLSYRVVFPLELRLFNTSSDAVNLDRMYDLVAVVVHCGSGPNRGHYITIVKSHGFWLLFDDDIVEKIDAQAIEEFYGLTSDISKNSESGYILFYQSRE
# Chain of USP46-UAF1 (Q8TAF3 whole entry partner): as the sequence (Q8TAF3 whole entry partner) above
# USP1-UAF1 [9] = target: T1, USP1-UAF1 (Homo sapiens, UniProt O94782); assay: HA-Ub-VME labeling of purified USP1-UAF1; conditions: biochemical assay
# T1 sequence (O94782 whole entry): as the sequence (O94782 whole entry) above
# T1 sequence (Q8TAF3 whole entry partner): as the sequence (Q8TAF3 whole entry partner) above
# USP1-UAF1 [10] = target: T1, USP1-UAF1; assay: inhibition mechanism determination; type: biochemical
# USP1-UAF1 [11] = target: T1, USP1-UAF1; assay: reversibility; type: biochemical; conditions: 100-fold dilution after treatment at ten times the IC50 for 15, 30 and 60 min
# USP10 = USP10 (Homo sapiens, UniProt Q14694); assay: in vitro DUB selectivity
# U2OS cells [12] = assay: FANCD2 subnuclear foci formation; type: cell-based, human; conditions: ML323 30 μM, cisplatin 5 μM, vehicle 13.1%
# 451 kinases = assay: in vitro kinase profiling; type: biochemical
# SENP1 = SENP1 (Homo sapiens, UniProt Q9P0U3); assay: in vitro deSUMOylase selectivity; type: biochemical
# Chain of SENP1 (Q9P0U3 whole entry): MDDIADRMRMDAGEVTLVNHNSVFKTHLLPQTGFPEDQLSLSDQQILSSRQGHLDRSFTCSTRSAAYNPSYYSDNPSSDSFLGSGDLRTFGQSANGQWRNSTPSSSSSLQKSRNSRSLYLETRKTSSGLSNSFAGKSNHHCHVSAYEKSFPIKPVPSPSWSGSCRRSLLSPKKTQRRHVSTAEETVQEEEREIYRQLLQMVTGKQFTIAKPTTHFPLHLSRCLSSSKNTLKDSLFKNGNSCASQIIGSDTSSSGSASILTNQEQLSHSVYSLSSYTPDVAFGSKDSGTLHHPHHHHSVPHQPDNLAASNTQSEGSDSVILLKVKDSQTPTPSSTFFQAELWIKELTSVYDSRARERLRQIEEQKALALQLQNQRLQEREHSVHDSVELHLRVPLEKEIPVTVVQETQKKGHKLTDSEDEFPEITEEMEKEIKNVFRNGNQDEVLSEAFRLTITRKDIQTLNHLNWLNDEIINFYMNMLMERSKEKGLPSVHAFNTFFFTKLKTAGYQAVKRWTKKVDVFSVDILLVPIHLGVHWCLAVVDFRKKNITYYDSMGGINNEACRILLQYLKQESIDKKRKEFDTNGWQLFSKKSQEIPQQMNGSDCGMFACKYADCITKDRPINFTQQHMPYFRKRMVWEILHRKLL
# [13] = tested on: USP1 shRNA knockdown H596 cells; assay: cellular Ub-PCNA level in USP1 shRNA knockdown cells; type: cell-based, human
# XPV + Polη cells = assay: UV sensitivity colony-forming assay; conditions: 20 μM ML323
# 70 unrelated proteases = assay: in vitro protease profiling
# USP1-UAF1 [14] = target: T1, USP1-UAF1; assay: native gel electrophoresis of USP1-UAF1 complex; conditions: up to 100 times its IC50
# USP5 = USP5 (Homo sapiens, UniProt P45974); assay: in vitro DUB selectivity; type: biochemical
# NEDP1 = NEDP1 (Homo sapiens, UniProt Q96LD8); assay: in vitro deneddylase selectivity; type: biochemical
# Chain of NEDP1 (Q96LD8 whole entry): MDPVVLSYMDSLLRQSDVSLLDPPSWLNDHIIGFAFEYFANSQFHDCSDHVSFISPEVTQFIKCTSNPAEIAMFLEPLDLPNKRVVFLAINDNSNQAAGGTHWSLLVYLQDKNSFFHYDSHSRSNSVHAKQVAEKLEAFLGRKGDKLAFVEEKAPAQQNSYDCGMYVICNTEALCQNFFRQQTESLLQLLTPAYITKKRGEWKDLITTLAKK
# H460 cell line = assay: colony-forming assay; conditions: read-out: EC50 of cell killing; cisplatin-sensitive NSCLC H460
# PD20 + D2 cells [15] = assay: cytotoxicity assay; conditions: PD20 + D2, cisplatin alone
# Chain of USP14 (P54578 whole entry): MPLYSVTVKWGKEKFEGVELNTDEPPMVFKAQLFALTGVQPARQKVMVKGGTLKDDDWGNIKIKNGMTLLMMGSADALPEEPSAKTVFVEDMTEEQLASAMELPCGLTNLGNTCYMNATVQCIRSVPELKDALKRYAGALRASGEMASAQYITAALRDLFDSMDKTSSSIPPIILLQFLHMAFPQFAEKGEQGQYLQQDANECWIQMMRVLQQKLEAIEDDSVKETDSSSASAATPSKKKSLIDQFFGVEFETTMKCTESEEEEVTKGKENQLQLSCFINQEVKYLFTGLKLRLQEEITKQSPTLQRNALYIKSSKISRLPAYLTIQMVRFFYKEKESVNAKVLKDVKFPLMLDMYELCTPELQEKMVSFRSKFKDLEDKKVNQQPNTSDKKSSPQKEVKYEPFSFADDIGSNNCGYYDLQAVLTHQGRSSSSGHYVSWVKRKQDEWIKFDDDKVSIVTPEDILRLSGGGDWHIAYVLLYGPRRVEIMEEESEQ
structure (smiles),measurement,setting,value
O=c1[nH]c2ccccc2n1C1CCN(CCCC(c2ccc(F)cc2)c2ccc(F)cc2)CC1 [pimozide],affinity as inhibitor of human USP1-UAF1,human USP1-UAF1,low micromolar
Cc1cnc(-c2ccccc2C(C)C)nc1NCc1ccc(-n2ccnn2)cc1 [ML323],SCE events per chromosome,U2OS cells [1],0.13 SCE events per chromosome
same,inhibition of USP14,USP14,little to no inhibition
same,LD50 of UV sensitivity,XPV cells,3.2 J m^−2
same,change in levels of Ub-PCNA and Ub-FANCD2,H596 cells [2],increase in the monoubiquitination of PCNA and FANCD2 was also observed
same,time to effect on PCNA ubiquitination after treatment,"H596 cells [2]; H596, ML323 alone or in combination with cisplatin",3 to 6 h
same,level of Ub-H2A,"H596 cells [2]; H596, ML323 alone or with cisplatin",did not affect the level of Ub-H2A
same,concentration at which increase in Ub-PCNA level is seen,"H596 cells [2]; H596, absence or presence of cisplatin, 6 h",≥ 5 µM
same,labeling of cellular USP1 by HA-Ub-VME,USP1 in HEK293T cells,clear decrease in the intensity of the labeled USP1 band
same,labeling of other cellular DUBs by HA-Ub-VME,[3],did not inhibit the labeling of the DUBs tested
same,EC50,"H596 cells [4]; Homo sapiens, NCI-H596, read-out: EC50 of cell killing",> 10000 nM
same,"inhibition of DUBs of UCH, OTU and MJD families",[5],little to no inhibition
same,inhibition of USP11,USP11,little to no inhibition
same,I-SceI-induced HR frequency,DR-U2OS cells,0.81%
same,inhibition of USP21,USP21,little to no inhibition
same,cell cycle delay or arrest,"H596 cells [6]; H596, ML323 alone 20 μM",did not result in cell cycle delay or arrest
same,LD50 of UV sensitivity,PD20 cells,2.8 J m^−2
same,LD50 of UV sensitivity,PD20 + D2 cells [7],3.4 J m^−2
same,inhibition of USP2,USP2,little to no inhibition
same,sensitization to cisplatin,[8],no further sensitization to cisplatin
same,inhibition of USP8,USP8,little to no inhibition
same,inhibition of USP46-UAF1,USP46-UAF1,did not inhibit
same,labeling of USP1-UAF1 by HA-Ub-VME,USP1-UAF1 [9],inhibited the labeling of USP1-UAF1 by HA-Ub-VME
same,inhibition mechanism,"USP1-UAF1 [10]; Lineweaver-Burk, di-Ub cleavage",mixed inhibition mechanism
same,inhibition constant for the enzyme-substrate complex (K'i),USP1-UAF1 [10]; mixed inhibition,183 nM
same,reversibility of inhibition,USP1-UAF1 [11],reversible inhibitor
same,inhibition of USP10,USP10,little to no inhibition
same,FANCD2 subnuclear foci formation,U2OS cells [12],no substantial change
same,inhibition of kinases,451 kinases,no substantial inhibition
same,inhibition of SENP1,SENP1,did not inhibit
same,"Ub-PCNA level, cisplatin vs combination of ML323 and cisplatin",[13],little difference in Ub-PCNA levels
same,LD50 of UV sensitivity,XPV + Polη cells,4.7 J m^−2
same,decrease of UV LD50 vs UV treatment alone,XPV + Polη cells,42%
same,inhibition of other proteases,70 unrelated proteases,no substantial inhibition
same,disruption of the USP1-UAF1 complex,USP1-UAF1 [14],ruled out the possibility that ML323 acts as a disruptor of the USP1-UAF1 complex
same,inhibition of USP5,USP5,little to no inhibition
same,inhibition of NEDP1,NEDP1,did not inhibit
CC(C)(Sc1ccc(CCN(CCCCC2CCCCC2)C(=O)NC2CCCCC2)cc1)C(=O)O [GW7647],affinity as inhibitor of human USP1-UAF1,human USP1-UAF1,low micromolar
"N.N.[Cl][Pt][Cl] [cisplatin, reference compound]",SCE events per chromosome,U2OS cells [1],0.99 SCE events per chromosome
same,change in levels of Ub-PCNA and Ub-FANCD2,H596 cells [2],small increase
same,EC50,H460 cell line,74 nM
same,EC50,"H596 cells [4]; read-out: EC50 of cell killing, H596, single agent",486 nM
same,population of cells in S phase,"H596 cells [6]; H596, cisplatin 5 μM, ML323 20 μM",45%
same,EC50,PD20 + D2 cells [15],12300 nM
same,FANCD2 subnuclear foci formation,U2OS cells [12],59.4%

# Source: publication PMC4144829 (Nature chemical biology, 2014)
